# Laboratory results taken from US20080234232A1, “Methods and compositions for targeting AFAP” (priority 2007, published 2008).
# Key:
# cSrc = assay: Immunofluorescence: translocation of cSrc from the perinuclear region to the cell periphery; format: cell-based, mouse; details: 100 nM PMA
# Procedure: FIG. 2: Inhibition of PI3K blocks translocation of cSrc from the perinuclear region of mouse embryo fibroblast in response to PMA treatment. SYF and p85−/− null cells were transiently transfected with cSrc and labeled for avian cSrc using EC10, an avian-specific monoclonal antibody (1:500). EC10 was visualized with anti-mouse Atexa Fluor 488 (false colored red for consistency). Cells treated with 100 nM PMA (panel b) induced translocation of cSrc to the cell periphery as indicated by the arrows. However, cells treated with 100 nM PMA in conjunction with 6 μM bisindolylmaleimide (panel c) or 10 μM LY (panel d) blocked the translocation of cSrc as indicated by the arrows. […] (n=nucleus) Bars represent 20 μM.
# SYF, SYF/cSrc, p85α+/+ and p85−/− cells were cultured in standard culture media. Transient transfections of SYF, SYF/cSrc, p85α+/+ cells for immunofluorescence were carried out using LipofectAMINE™ Reagent (Invitrogen) as per manufacturer's protocol. Briefly, Approximately 5.0-8.0×10^4 cells per well were transfected at 50-70% confluent on coverstips with 2-4 μg of plasmid DNA and incubated for 3-4 hours. Thirty-six hours after transfection, cells were serum starved for 12 hours, treated, and subsequently fixed and permeablized as previously described (Qian, Y. et. al., 1998). Cells were treated with a PKC activator, 100 nM PMA for 5 or 15 minutes or in combination with the following pretreatments; a PKC inhibitor, 6 μM bisindolylmaleimide [I] for six hours; or PI3K inhibitor, 10 μM LY294002 for six hours; 50 nM Wortmannin for 30 minutes; and/or a Src family inhibitor, 5 μM PP1 for six hours. For actin labeling, a 1:500 dilution of TRITC-phalloidin was used as labeled in the figures. Primary antibody concentrations used were diluted in 5% Bovine Serum Albumin (BSA) dissolved in 1× phosphate-buffered saline (PBS): EC10 mAb-1:500; Phospho-Src Family (Y416) pAb-1:250; Anti-PI-3,4,5-P3 mAb-1:100; Anti-AFAP-110 (F1)pAb-1:1000; Anti-cSrc pAb-1:500; Anti-flag-1:1000. […]
# PI3K [1] = target: T1, PI3K (Mus musculus, UniProt P42337); assay: In vitro PI3K kinase assay on anti-p110α immunoprecipitates of treated SYF/cSrc cells; format: cell-based; details: SYF/cSrc cells serum-starved, 100 nM PMA for 5 or 15 minutes
# T1 construct: a PI3K kinase activity assay performed using anti-p1100α immunoprecipitates; endogenous in cells; host or cells: SYF/cSrc mouse embryo fibroblasts (lysate, anti-p110α immunoprecipitate)
# T1 sequence (P42337 whole entry): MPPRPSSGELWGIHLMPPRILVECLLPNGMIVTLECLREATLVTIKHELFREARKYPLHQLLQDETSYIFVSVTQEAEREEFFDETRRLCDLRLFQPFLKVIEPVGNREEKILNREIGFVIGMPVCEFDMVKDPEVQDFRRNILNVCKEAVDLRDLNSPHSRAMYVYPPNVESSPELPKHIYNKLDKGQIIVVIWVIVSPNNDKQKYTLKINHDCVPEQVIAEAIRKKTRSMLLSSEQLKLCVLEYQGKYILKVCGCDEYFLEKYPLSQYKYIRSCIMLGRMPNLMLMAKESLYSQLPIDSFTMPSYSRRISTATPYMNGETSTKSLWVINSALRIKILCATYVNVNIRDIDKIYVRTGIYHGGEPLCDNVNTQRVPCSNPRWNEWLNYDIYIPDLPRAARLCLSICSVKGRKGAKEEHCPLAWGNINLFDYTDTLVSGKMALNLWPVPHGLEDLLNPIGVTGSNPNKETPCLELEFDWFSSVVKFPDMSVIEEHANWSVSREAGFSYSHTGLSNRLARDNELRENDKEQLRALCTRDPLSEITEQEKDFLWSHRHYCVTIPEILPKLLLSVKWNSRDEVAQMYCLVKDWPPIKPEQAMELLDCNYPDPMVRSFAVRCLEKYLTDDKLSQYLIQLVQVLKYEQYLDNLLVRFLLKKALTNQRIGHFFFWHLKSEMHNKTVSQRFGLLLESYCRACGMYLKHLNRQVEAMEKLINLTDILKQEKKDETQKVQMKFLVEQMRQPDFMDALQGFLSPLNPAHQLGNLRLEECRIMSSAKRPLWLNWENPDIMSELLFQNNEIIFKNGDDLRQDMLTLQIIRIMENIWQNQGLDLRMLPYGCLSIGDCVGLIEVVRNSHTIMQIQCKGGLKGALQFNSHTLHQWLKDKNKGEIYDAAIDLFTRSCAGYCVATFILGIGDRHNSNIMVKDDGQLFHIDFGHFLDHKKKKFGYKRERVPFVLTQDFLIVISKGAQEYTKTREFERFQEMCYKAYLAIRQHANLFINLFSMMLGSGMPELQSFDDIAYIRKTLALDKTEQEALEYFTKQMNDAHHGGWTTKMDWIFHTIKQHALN
# T1 sequence (P26450 whole entry partner): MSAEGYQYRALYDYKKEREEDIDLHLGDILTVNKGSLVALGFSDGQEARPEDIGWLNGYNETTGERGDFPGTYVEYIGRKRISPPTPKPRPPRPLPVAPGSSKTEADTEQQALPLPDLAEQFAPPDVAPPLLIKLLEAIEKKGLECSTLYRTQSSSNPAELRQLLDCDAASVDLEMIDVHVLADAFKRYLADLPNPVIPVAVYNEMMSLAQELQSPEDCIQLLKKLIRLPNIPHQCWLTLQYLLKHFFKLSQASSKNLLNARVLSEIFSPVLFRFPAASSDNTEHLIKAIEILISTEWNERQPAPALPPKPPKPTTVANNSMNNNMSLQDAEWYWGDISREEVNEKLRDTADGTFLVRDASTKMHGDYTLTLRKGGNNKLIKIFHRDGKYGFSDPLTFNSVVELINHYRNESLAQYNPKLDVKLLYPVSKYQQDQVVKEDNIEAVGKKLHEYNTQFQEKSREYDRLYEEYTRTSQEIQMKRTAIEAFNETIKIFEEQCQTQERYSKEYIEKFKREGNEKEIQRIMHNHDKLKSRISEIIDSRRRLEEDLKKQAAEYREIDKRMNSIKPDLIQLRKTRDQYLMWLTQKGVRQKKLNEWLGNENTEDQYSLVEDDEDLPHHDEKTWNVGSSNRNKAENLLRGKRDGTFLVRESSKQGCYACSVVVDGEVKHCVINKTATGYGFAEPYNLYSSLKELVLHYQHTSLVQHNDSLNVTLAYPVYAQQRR
# Procedure: FIG. 3: PMA treatment results in an increase in PI3K activation, in vitro. SYF/cSrc cells were cultured under serum-free conditions for 24 hours. Cells were unstimulated or stimulated with 10% serum (positive control), 100 nM PMA for 5 or 15 minutes. Cells were then lysed in kinase assay buffer and a PI3K kinase activity assay performed using anti-p1100α immunoprecipitates to measure PMA-induced incorporation of [^32p] into phosphoinositide substrates.
# PI3K activity was determined using the In vitro PI3K kinase assay as previously described (Jiang, B. H. et. al., 1998). Cells were serum-starved 24 hours. The media was changed and cells were then treated with either 10% fetal calf serum or 100 nM PMA for 5 or 15 minutes alone or in conjunction with 6 μM bisindolylmaleimide [i] or 10 μM LY294002 for six hours as a negative control. Upon completion of the incubation, the cells were lysed in cold kinase lysis buffer [150 mM NaCl, 100 mM Tris pH 8.0, 1% Triton X-100, 5 mM EDTA, 10 mM NaF, plus inhibitors (1 mg/ml leuptin, 1 mg/ml peptatin, 0.5 M sodium vanadate, 1 mg/ml aprotinin, and 1M DTT)]. Five hundred micrograms (500 μg) of protein was incubated with p110α antibody overnight at 4° C. Forty microliters (40 μl) of protein A/G PLUS agarose beads (50% slurry) was added and incubated for an additional two hours. […]
# PI3K [2] = assay: Immunofluorescence of Ptdlns-3,4,5-P3 production in SYF/cSrc cells; format: cell-based, mouse; details: 100 nM PMA
# Procedure: SYF/cSrc cells were serum-starved for 24 hours. Cells stimulated with 10% serum (panels c-f), 100 nM PMA for 5 (panels g-h), or 15 minutes (panels i-j); as well as treated with 100 nM PMA in combination with 6 μM bisindolylmaleimide [I] (panels k-I) or 50 nM wortmannin (panels m-n). Cells treated with 100 nM PMA in combination with 5 μM PP1 (panel o-p) and Ptdlns-3,4,5-P3 levels evaluated. Cells were immunolabeled with a PI-3,4,5-P3-specific antibody (Echelon, Inc.;1:100) and TRITC-phalloidin (1:500). Secondary antibody for anti-PI-3,4,5-P3 (1:100) was Alexa IgM 647 anti-mouse (1:200). Bars represent 20 μm.
# SYF, SYF/cSrc, p85α+/+ and p85−/− cells were cultured in standard culture media. Transient transfections of SYF, SYF/cSrc, p85α+/+ cells for immunofluorescence were carried out using LipofectAMINE™ Reagent (Invitrogen) as per manufacturer's protocol. Briefly, Approximately 5.0-8.0×10^4 cells per well were transfected at 50-70% confluent on coverstips with 2-4 μg of plasmid DNA and incubated for 3-4 hours. Thirty-six hours after transfection, cells were serum starved for 12 hours, treated, and subsequently fixed and permeablized as previously described (Qian, Y. et. al., 1998). Cells were treated with a PKC activator, 100 nM PMA for 5 or 15 minutes or in combination with the following pretreatments; a PKC inhibitor, 6 μM bisindolylmaleimide [I] for six hours; or PI3K inhibitor, 10 μM LY294002 for six hours; 50 nM Wortmannin for 30 minutes; and/or a Src family inhibitor, 5 μM PP1 for six hours. For actin labeling, a 1:500 dilution of TRITC-phalloidin was used as labeled in the figures. Primary antibody concentrations used were diluted in 5% Bovine Serum Albumin (BSA) dissolved in 1× phosphate-buffered saline (PBS): EC10 mAb-1:500; Phospho-Src Family (Y416) pAb-1:250; Anti-PI-3,4,5-P3 mAb-1:100; Anti-AFAP-110 (F1)pAb-1:1000; Anti-cSrc pAb-1:500; Anti-flag-1:1000. All fluorescent secondary and phalloidin antibodies were diluted 1:200 in 5% BSA, and are labeled according to figure legends. Cells were washed and mounted on slides with Fluoromount-G (Fisher). A Zeiss LSM 510 confocal microscope was used to scan images of about 1 μM in thickness. To prevent cross-contamination between the different fluorochromes, each channel was imaged sequentially using the multitrack recording module before merging the images. For all figures, representative cells are shown (>100 cells examined per image shown).
# Ptdlns-3,4,5-P3 production was measured using the anti-Ptdlns-3,4,5-P3 antibody (Echelon, inc.) for analysis by immunofluorescence and contrasted with stress filament integrity, measured using TRITC-phalloidin as previously described (Chen, R. et. al., 2002; Hama, H. et. al., 2004). SYF/cSrc cells were left untreated or treated with serum as controls for PI3K activation. […] In addition, SYF/cSrc cells were stimulated with PMA for 5 or 15 minutes.
smiles,measurement,setting,value
"CCCCCCCCCCCCCC(=O)O[C@@H]1[C@@H](C)[C@@]2(O)[C@@H](C=C(CO)C[C@]3(O)C(=O)C(C)=C[C@@H]23)[C@@H]2C(C)(C)[C@]12OC(C)=O [PMA, Phorbol 12-myristate 13-acetate]",translocation of cSrc on PMA treatment,cSrc; SYF cells transfected with cSrc,induced cSrc to translocate from the perinuclear region to the cell periphery
same,translocation of cSrc on PMA treatment,cSrc; p85−/− cells,cSrc remained in the perinuclear region
same,PI3K activity (incorporation of 32P into phosphoinositide substrate),PI3K [1],significant increase
same,"Ptdlns-3,4,5-P3 production",PI3K [2]; 5 minutes,able to induce
same,"Ptdlns-3,4,5-P3 levels",PI3K [2]; 15 minutes,consistently reduced
